Measurements as given in patent publication US12371421B2, “Solid forms of a PARP7 inhibitor” (Ribon Therapeutics, Inc., priority 2019, dated 2025).
≈ marks a conversion by molar mass, not a printed value.

Assay: Approximate solubility of Form A in solvents at room temperature
Assay type: physicochemical
Method: The approximate solubility of Form A was estimated in 27 solvents or co-solvents at room temperature. Approximately 2 mg of solids were weighed into each 3 mL glass vial, to which each of the solvents was added in stepwise until the solids dissolved completely or the total volume reaches 2.0 mL. Solubility ranges were used to guide the solvent selection for polymorph screening described in later examples.

solubility (organic solvent or mixture, thermodynamic from solid, 1,4-Dioxane): 5000 to 10000 µg/mL (≈ 9.55 to 19.1 mM)
solubility (organic solvent or mixture, thermodynamic from solid, 2-MeTHF): < 1000 µg/mL
solubility (organic solvent or mixture, thermodynamic from solid, ACN): 11000 to 22000 µg/mL (≈ 21 to 42 mM)
solubility (organic solvent or mixture, thermodynamic from solid, ACN/MIBK (1:9) v:v): 2000 to 5000 µg/mL (≈ 3.82 to 9.55 mM)
solubility (organic solvent or mixture, thermodynamic from solid, ACN/MTBE (1:9) v:v): 1200 to 2400 µg/mL (≈ 2.29 to 4.59 mM)
solubility (organic solvent or mixture, thermodynamic from solid, ACN/THF (1:4) v:v): 5000 to 10000 µg/mL (≈ 9.55 to 19.1 mM)
solubility (organic solvent or mixture, thermodynamic from solid, ACN/THF (1:9) v:v): 10000 to 20000 µg/mL (≈ 19.1 to 38.2 mM)
solubility (organic solvent or mixture, thermodynamic from solid, Acetone): > 40000 µg/mL
solubility (organic solvent or mixture, thermodynamic from solid, Acetone/n-Heptane (1:4) v:v): < 1300 µg/mL
solubility (organic solvent or mixture, thermodynamic from solid, Acetone/n-Heptane (1:9) v:v): < 1000 µg/mL
solubility (organic solvent or mixture, thermodynamic from solid, CHCl3): 22000 to 44000 µg/mL (≈ 42 to 84.1 mM)
solubility (organic solvent or mixture, thermodynamic from solid, DCM): 19000 to 38000 µg/mL (≈ 36.3 to 72.6 mM)
solubility (organic solvent or mixture, thermodynamic from solid, DCM/MTBE (1:9) v:v): < 1200 µg/mL
solubility (organic solvent or mixture, thermodynamic from solid, DMAc): 22000 to 44000 µg/mL (≈ 42 to 84.1 mM)
solubility (organic solvent or mixture, thermodynamic from solid, DMSO): > 42000 µg/mL
solubility (organic solvent or mixture, thermodynamic from solid, EtOAc): 1900 to 4800 µg/mL (≈ 3.63 to 9.17 mM)
solubility (organic solvent or mixture, thermodynamic from solid, EtOH): < 1100 µg/mL
solubility (organic solvent or mixture, thermodynamic from solid, IPA): < 1100 µg/mL
solubility (organic solvent or mixture, thermodynamic from solid, IPAc): < 1100 µg/mL
solubility (organic solvent or mixture, thermodynamic from solid, MIBK): < 1000 µg/mL
solubility (organic solvent or mixture, thermodynamic from solid, MTBE): < 1000 µg/mL
solubility (organic solvent or mixture, thermodynamic from solid, MeOH): < 1100 µg/mL
solubility (organic solvent or mixture, thermodynamic from solid, NMP): > 38000 µg/mL
solubility (organic solvent or mixture, thermodynamic from solid, THF): < 1100 µg/mL
solubility (organic solvent or mixture, thermodynamic from solid, Toluene): < 1000 µg/mL
solubility (organic solvent or mixture, thermodynamic from solid, n-Heptane): < 1000 µg/mL
solubility (water, thermodynamic from solid, H2O): < 1100 µg/mL
Structure (SMILES): C[C@@H](COCCC(=O)N1CCN(c2ncc(C(F)(F)F)cn2)CC1)Nc1cn[nH]c(=O)c1C(F)(F)F [Form A, 5-[[(2S)-1-(3-oxo-3-[4-[5-(trifluoromethyl)pyrimidin-2-yl]piperazin-1-yl]propoxy)propan-2-yl]amino]-4-(trifluoromethyl)-2,3-dihydropyridazin-3-one]
